ChEMBL document CHEMBL6074684, “Structure-activity relationship study of novel evodiamine amino acid conjugates with potent anti-colorectal cancer efficacy” (Eur J Med Chem, 2025)
pIC50: −log10 of the molar value. Activity calls are given as the source filed them. The rule behind the calls is not given here.

Tests used:
HT-29 = assay: Antiproliferative activity against human HT-29 cells assessed as inhibition of cell growth incubated for 72 hrs by MTT assay; assay type: functional, cell-based; conditions: HT-29, 72 h
HCT-116 = assay: Antiproliferative activity against human […] cells assessed as inhibition of cell growth incubated for 72 hrs by MTT assay; assay type: functional, cell-based; conditions: HCT-116, 72 h
RKO [1] = assay: Antiproliferative activity against human RKO cells assessed as inhibition of cell growth incubated for 72 hrs by MTT assay; assay type: functional, cell-based
HGC-27 = assay: Antiproliferative activity against human HGC-27 cells assessed as inhibition of cell growth incubated for 72 hrs by MTT assay; assay type: functional, cell-based; conditions: HGC-27, 72 h
Huh-7 = assay: Antiproliferative activity against human Huh-7 cells assessed as inhibition of cell growth incubated for 72 hrs by MTT assay; assay type: functional, cell-based; conditions: Huh-7, 72 h
MCF7 = assay: Antiproliferative activity against human MCF7 cells assessed as inhibition of cell growth incubated for 72 hrs by MTT assay; assay type: functional, cell-based; conditions: MCF7, 72 h
[2] = Stability of compound in rat plasma assessed as half-life; assay type: ADME, cell-free
[3] = Stability of compound at pH 4.6 assessed as residual rate measured after 2 days; assay type: physicochemical; conditions: buffer, time 2 day, read-out: Stability
[4] = Stability of compound at pH 5.5 assessed as residual rate measured after 2 days; assay type: physicochemical; conditions: buffer, time 2 day, read-out: Stability
[5] = Stability of compound at pH 7.4 assessed as residual rate measured after 2 days; assay type: physicochemical; conditions: buffer, time 2 day, read-out: Stability
[6] = Cmax in male Sprague-Dawley rat at 50 mg/kg, ip measured after 24 hrs by LC-MS/MS analysis; assay type: ADME, organism-based; conditions: in vivo
LoVo [7] = assay: Antiproliferative activity against human LoVo cells assessed as reduction in cell viability measured after 24 hrs; assay type: functional, cell-based; conditions: dose 40-200 nmol/L
RKO [8] = assay: Antiproliferative activity against human RKO cells assessed as reduction in cell viability measured after 24 hrs; assay type: functional, cell-based; conditions: dose 40-200 nmol/L
LoVo [9] = assay: Cell cycle arrest in human LoVo cells assessed as accumulation of cells at G2 phase cells at 90 nM incubated for 24 hrs by […]PI staining based flow cytometric analysis (reference value: 14.84 %); assay type: functional
LoVo [10] = assay: Cell cycle arrest in human LoVo cells assessed as accumulation of cells at S phase cells at 90 nM incubated for 24 hrs by […]PI staining based flow cytometric analysis (reference value: 54.99 %); assay type: functional
LoVo [11] = assay: Cell cycle arrest in human LoVo cells assessed as accumulation of cells at G2 phase cells at 10 nM incubated for 24 hrs by […]PI staining based flow cytometric analysis (reference value: 14.84 %); assay type: functional
LoVo [12] = assay: Cell cycle arrest in human LoVo cells assessed as accumulation of cells at S phase cells at 10 nM incubated for 24 hrs by […]PI staining based flow cytometric analysis (reference value: 54.99 %); assay type: functional
LoVo [13] = assay: Cell cycle arrest in human LoVo cells assessed as accumulation of cells at G1 phase cells at 30 nM incubated for 24 hrs by […]PI staining based flow cytometric analysis (reference value: 29.69 %); assay type: functional
RKO [14] = assay: Cell cycle arrest in human RKO cells assessed as accumulation of cells at S phase at 90 nM incubated for 24 hrs by […]PI staining based flow cytometric analysis (reference value: 43.36 %); assay type: functional
RKO [15] = assay: Cell cycle arrest in human RKO cells assessed as accumulation of cells at G1 phase at 10 nM incubated for 24 hrs by […]PI staining based flow cytometric analysis (reference value: 35.29 %); assay type: functional
RKO [16] = assay: Cell cycle arrest in human RKO cells assessed as accumulation of cells at G2 phase at 10 nM incubated for 24 hrs by […]PI staining based flow cytometric analysis (reference value: 20.07 %); assay type: functional
RKO [17] = assay: Cell cycle arrest in human RKO cells assessed as accumulation of cells at S phase at 10 nM incubated for 24 hrs by […]PI staining based flow cytometric analysis (reference value: 43.36 %); assay type: functional
RKO [18] = assay: Cell cycle arrest in human RKO cells assessed as accumulation of cells at G2 phase at 30 nM incubated for 24 hrs by […]PI staining based flow cytometric analysis (reference value: 20.07 %); assay type: functional
RKO [19] = assay: Cell cycle arrest in human RKO cells assessed as accumulation of cells at S phase at 30 nM incubated for 24 hrs by […]PI staining based flow cytometric analysis (reference value: 43.36 %); assay type: functional
LoVo [20] = assay: Induction of apoptosis in human LoVo cells assessed as apoptosis rate at 90 nM incubated for 24 hrs by Annexin V/PI staining based flow cytometric analysis (reference value: 4.71 %); assay type: functional
RKO [21] = assay: Induction of apoptosis in human RKO cells assessed as apoptosis rate at 90 nM incubated for 24 hrs by Annexin V/PI staining based flow cytometric analysis (reference value: 4.87 %); assay type: functional
[22] = Apparent clearance during terminal phase in male Sprague-Dawley rat at 50 mg/kg, ip measured after 24 hrs by LC-MS/MS analysis; assay type: ADME, organism-based; conditions: in vivo, read-out: CLz/F (converted)
Mitochondrial membrane = assay: Induction of mitochondrial membrane potential loss in human RKO cells assessed as decrease in TMRE positive cells at 10 to 90 nM incubated for 24 hrs by TMRE staining based flow cytometric analysis; assay type: cell membranes; conditions: dose 10-90 nM
LoVo [23] = assay: Antitumor activity against human LoVo cells xenografted in male BALB/c nude mouse assessed as tumor growth inhibition at 40 mg/kg, ip administered once daily for 14 days relative to control; assay type: functional; conditions: 336 h, time 14 day, read-out: TGI
[24] = Toxicity in male BALB/c nude mouse xenografted with human LoVo cells assessed as tolerance at 40 mg/kg, ip administered once daily for 14 days; assay type: organism-based; conditions: in vivo, 336 h, time 14 day
[25] = Toxicity in male BALB/c nude mouse xenografted with human HT-29 cells assessed as tolerance at 40 mg/kg, ip administered once daily for 14 days; assay type: organism-based; conditions: in vivo, 336 h, time 14 day
[26] = Toxicity in male BALB/c nude mouse xenografted with human LoVo cells assessed as body weight loss at 40 mg/kg, ip administered once daily for 14 days; assay type: organism-based; conditions: in vivo, 336 h, time 14 day
[27] = Chemical stability of compound in McCoy's 5A cell culture medium containing 1 % DMSO assessed as retention time at 100 uM incubated for 24 hrs by HPLC analysis; assay type: physicochemical

`CC(C)(C)OC(=O)N[C@@H](CCC(N)=O)C(=O)Oc1ccc2[nH]c3c(c2c1)CCN1C(=O)c2cc(F)ccc2N(c2cccc(F)c2)[C@H]31` showed a pIC50 (HT-29) of 6.89, a pIC50 (HCT-116) of 6.59 and a pIC50 (RKO [1]) of 7.30. The pIC50 (HGC-27) was 6.96, the pIC50 (Huh-7) was 6.43 and the pIC50 (MCF7) was 6.22. The half-life [2] was 36 min, the remaining at 48 h [3] was 67.8% and the remaining at 48 h [4] was 60.1%. For the same molecule, the remaining at 48 h [5] was 40.2%, the Cmax [6] was 7080 ng/mL and the Activity (LoVo [7]) was “Dose-dependent-effect”. The Activity (RKO [8]) was “Dose-dependent-effect”, the Activity (LoVo [9]) was 19.93% and the Activity (LoVo [10]) was 53.62%. The Activity (LoVo [11]) was 27.11%, the Activity (LoVo [12]) was 45.15% and the Activity (LoVo [13]) was 10.27%. It also gave an Activity (RKO [14]) of 49.95%, an Activity (RKO [15]) of 29.55% and an Activity (RKO [16]) of 27.14%. The Activity (RKO [17]) was 42.5%, the Activity (RKO [18]) was 56.8% and the Activity (RKO [19]) was 25.51%. It also gave an Activity (LoVo [20]) of 36.4%, an Activity (RKO [21]) of 12.25% and a CL/F [22] of 57.2 mL/min/kg. For the same molecule, the Activity (Mitochondrial membrane) was “Active”, the inhibition in vivo at 40 mg/kg (LoVo [23]) was 82.5% and the Activity [24] was “Non-toxic”. For the same molecule, the Activity [25] was “Non-toxic”, the Activity [26] was “Non-toxic” and the Retention_time [27] was 8.63 min.
